{
  "source": "paper PMC10924921",
  "about": "“Mi-2β promotes immune evasion in melanoma by activating EZH2 methylation” (Nature Communications, 2024)",
  "test_in_all_cases": "biochemical",
  "set-up_in_all_cases": "KINOMEscan active-site competition binding panel (468 kinase assays), per cent of control at 1000 nM",
  "details_in_all_cases": "KINOMEscan per cent of control (binding competition); read-out: Percent Control",
  "key": {"[1]": {"molecular_target": "TGFBR1 (Homo sapiens, UniProt P36897)", "from_the_text": "(§1) Figure S7 / Percent Control"}, "[2]": {"molecular_target": "EPHB4 (Homo sapiens, UniProt P54760)", "from_the_text": "as §1"}, "[3]": {"molecular_target": "T1, MINK (Homo sapiens, UniProt Q8N4C8)", "T1 construct": "gene MINK1", "from_the_text": "as §1"}, "[4]": {"molecular_target": "WNK1 (Homo sapiens, UniProt Q9H4A3)", "sequence (Q9H4A3 whole entry)": "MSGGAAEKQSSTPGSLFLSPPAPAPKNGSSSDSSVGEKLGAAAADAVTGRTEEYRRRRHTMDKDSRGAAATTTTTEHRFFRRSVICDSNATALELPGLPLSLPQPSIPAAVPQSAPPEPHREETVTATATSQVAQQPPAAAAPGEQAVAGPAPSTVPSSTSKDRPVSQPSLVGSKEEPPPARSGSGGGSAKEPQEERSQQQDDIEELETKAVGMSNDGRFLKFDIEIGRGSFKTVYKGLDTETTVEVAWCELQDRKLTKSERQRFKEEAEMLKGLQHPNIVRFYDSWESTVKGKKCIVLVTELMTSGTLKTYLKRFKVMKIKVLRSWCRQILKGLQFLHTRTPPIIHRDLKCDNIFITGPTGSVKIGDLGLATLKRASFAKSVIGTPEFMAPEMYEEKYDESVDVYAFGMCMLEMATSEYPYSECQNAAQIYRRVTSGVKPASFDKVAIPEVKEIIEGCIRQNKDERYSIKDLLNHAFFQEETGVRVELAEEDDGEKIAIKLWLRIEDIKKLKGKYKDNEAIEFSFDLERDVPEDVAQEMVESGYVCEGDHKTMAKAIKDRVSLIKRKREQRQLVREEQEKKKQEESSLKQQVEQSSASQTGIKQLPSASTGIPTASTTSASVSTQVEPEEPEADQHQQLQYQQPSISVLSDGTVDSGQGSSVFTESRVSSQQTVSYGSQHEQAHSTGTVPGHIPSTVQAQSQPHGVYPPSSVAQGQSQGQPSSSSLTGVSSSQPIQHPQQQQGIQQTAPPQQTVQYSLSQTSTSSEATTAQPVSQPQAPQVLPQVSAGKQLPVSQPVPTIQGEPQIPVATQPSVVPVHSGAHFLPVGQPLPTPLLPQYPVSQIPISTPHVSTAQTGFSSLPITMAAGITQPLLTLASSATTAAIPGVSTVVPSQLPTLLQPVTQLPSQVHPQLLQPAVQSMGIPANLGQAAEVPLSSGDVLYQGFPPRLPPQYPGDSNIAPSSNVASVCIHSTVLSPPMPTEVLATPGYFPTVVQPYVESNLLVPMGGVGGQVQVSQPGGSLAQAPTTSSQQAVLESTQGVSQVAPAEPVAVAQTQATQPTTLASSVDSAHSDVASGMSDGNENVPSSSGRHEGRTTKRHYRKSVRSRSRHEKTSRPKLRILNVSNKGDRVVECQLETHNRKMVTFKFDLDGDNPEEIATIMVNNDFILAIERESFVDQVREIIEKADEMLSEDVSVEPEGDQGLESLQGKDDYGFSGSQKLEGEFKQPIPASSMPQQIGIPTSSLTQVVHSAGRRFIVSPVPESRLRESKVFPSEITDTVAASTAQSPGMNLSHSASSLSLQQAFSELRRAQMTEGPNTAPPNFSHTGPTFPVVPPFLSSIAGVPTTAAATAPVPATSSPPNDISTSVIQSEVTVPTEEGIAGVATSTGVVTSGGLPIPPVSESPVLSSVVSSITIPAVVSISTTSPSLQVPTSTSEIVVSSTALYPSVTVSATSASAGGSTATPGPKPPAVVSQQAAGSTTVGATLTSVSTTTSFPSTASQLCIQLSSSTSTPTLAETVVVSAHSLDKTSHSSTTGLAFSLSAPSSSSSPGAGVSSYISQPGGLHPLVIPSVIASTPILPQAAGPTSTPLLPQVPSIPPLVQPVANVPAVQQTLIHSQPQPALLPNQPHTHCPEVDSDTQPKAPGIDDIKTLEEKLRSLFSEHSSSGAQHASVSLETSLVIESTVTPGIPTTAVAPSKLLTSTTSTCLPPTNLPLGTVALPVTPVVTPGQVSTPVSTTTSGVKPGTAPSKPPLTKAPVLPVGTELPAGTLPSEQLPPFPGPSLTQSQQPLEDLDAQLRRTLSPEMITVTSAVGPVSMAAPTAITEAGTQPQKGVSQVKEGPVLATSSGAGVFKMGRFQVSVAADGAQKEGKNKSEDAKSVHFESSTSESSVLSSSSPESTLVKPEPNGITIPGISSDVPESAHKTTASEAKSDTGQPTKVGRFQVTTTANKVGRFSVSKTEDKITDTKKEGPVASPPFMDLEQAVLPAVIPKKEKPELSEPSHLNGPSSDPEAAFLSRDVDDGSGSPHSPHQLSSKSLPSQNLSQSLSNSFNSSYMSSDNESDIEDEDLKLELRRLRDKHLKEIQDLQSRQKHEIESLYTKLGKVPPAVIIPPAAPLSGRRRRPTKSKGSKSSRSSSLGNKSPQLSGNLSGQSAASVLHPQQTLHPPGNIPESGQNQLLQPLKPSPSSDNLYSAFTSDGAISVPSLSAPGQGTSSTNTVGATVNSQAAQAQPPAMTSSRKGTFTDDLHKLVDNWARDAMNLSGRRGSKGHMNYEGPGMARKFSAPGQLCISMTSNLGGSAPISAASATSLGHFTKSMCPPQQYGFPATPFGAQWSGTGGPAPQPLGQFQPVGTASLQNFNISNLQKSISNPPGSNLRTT", "from_the_text": "as §1"}, "[5]": {"molecular_target": "T2, JAK2(JH1domain-catalytic) (Homo sapiens, UniProt O60674)", "T2 construct": "JH1domain-catalytic", "from_the_text": "as §1"}, "[6]": {"molecular_target": "NEK4 (Homo sapiens, UniProt P51957)", "from_the_text": "as §1"}, "[7]": {"molecular_target": "T3, VEGFR2 (Homo sapiens, UniProt P35968)", "T3 construct": "gene KDR", "from_the_text": "as §1"}, "[8]": {"molecular_target": "PRKG2 (Homo sapiens, UniProt Q13237)", "sequence (Q13237 whole entry)": "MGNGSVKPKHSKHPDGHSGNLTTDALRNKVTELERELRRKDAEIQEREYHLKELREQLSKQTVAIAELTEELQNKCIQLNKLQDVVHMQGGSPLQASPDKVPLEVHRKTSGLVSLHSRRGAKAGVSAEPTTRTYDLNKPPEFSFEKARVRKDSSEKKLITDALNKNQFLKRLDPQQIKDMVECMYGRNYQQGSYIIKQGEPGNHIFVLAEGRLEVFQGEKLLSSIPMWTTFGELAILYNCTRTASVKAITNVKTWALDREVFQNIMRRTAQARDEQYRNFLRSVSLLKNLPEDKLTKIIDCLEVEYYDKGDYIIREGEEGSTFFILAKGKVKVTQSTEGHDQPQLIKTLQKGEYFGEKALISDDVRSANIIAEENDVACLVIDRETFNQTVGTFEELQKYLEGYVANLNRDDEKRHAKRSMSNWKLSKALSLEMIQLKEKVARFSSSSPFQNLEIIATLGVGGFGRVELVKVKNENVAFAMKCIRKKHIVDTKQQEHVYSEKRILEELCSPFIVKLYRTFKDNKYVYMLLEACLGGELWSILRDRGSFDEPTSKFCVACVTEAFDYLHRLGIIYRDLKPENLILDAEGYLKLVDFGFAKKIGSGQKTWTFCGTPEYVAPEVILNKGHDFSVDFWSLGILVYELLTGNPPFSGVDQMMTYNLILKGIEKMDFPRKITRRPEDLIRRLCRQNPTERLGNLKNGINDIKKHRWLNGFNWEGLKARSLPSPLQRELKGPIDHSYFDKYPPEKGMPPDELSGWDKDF", "from_the_text": "as §1"}, "[9]": {"molecular_target": "T4, DMPK2 (Homo sapiens, UniProt Q6DT37)", "T4 construct": "gene CDC42BPG", "from_the_text": "as §1"}, "[10]": {"molecular_target": "T5, ABL1(M351T)-phosphorylated (Homo sapiens, UniProt P00519, M351T)", "T5 construct": "phosphorylated", "from_the_text": "as §1"}, "[11]": {"molecular_target": "PAK4 (Homo sapiens, UniProt O96013)", "from_the_text": "as §1"}, "[12]": {"molecular_target": "TLK1 (Homo sapiens, UniProt Q9UKI8)", "sequence (Q9UKI8 whole entry)": "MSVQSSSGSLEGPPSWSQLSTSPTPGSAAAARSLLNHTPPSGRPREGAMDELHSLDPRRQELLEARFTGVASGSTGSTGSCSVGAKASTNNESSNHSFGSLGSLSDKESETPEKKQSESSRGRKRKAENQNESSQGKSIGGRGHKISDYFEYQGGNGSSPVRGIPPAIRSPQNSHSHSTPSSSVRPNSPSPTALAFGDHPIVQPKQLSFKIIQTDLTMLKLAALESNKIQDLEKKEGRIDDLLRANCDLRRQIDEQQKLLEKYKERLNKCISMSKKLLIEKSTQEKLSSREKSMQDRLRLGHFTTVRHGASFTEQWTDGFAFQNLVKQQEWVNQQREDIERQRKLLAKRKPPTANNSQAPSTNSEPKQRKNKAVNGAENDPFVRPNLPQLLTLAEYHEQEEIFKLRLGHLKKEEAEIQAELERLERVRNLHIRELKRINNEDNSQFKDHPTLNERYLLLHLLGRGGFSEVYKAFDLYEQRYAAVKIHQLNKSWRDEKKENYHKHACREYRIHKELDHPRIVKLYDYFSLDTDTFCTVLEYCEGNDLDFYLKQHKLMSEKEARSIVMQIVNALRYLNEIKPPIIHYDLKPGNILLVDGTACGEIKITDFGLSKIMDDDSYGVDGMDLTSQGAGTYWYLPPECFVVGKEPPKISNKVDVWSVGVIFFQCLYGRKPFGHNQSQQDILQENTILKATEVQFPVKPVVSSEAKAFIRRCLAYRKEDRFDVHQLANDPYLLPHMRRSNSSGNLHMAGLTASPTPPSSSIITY", "from_the_text": "as §1"}, "[13]": {"molecular_target": "T6, OSR1 (Homo sapiens, UniProt O95747)", "T6 construct": "gene OXSR1", "from_the_text": "as §1"}, "[14]": {"molecular_target": "EGFR(G719C) (Homo sapiens, UniProt P00533, G719C)", "from_the_text": "as §1"}, "[15]": {"molecular_target": "T7, LOK (Homo sapiens, UniProt O94804)", "T7 construct": "gene STK10", "from_the_text": "as §1"}, "[16]": {"molecular_target": "MYLK2 (Homo sapiens, UniProt Q9H1R3)", "sequence (Q9H1R3 whole entry)": "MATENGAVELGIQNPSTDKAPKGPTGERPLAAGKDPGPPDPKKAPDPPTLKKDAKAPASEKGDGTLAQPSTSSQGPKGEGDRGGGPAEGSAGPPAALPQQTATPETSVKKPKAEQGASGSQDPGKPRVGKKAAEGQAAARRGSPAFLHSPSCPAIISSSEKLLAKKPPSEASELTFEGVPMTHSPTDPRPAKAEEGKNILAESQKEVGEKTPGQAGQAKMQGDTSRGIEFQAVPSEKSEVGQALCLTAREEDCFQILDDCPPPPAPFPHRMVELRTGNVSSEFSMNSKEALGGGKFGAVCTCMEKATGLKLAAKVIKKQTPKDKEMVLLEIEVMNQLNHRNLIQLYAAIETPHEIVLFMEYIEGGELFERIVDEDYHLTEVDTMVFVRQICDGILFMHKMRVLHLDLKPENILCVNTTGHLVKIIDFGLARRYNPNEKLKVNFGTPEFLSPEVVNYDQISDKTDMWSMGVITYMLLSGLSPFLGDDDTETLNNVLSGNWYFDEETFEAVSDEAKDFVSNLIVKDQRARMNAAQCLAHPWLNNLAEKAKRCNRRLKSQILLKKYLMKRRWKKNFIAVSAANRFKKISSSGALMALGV", "from_the_text": "as §1"}, "[17]": {"molecular_target": "FRK (Homo sapiens, UniProt P42685)", "from_the_text": "as §1"}, "[18]": {"molecular_target": "T8, MRCKB (Homo sapiens, UniProt Q9Y5S2)", "T8 construct": "gene CDC42BPB", "from_the_text": "as §1"}, "[19]": {"molecular_target": "PKN2 (Homo sapiens, UniProt Q16513)", "from_the_text": "as §1"}, "[20]": {"molecular_target": "CDK7 (Homo sapiens, UniProt P50613)", "from_the_text": "as §1"}, "[21]": {"molecular_target": "T9, YES (Homo sapiens, UniProt P07947)", "T9 construct": "gene YES1", "T9 sequence (P07947 whole entry)": "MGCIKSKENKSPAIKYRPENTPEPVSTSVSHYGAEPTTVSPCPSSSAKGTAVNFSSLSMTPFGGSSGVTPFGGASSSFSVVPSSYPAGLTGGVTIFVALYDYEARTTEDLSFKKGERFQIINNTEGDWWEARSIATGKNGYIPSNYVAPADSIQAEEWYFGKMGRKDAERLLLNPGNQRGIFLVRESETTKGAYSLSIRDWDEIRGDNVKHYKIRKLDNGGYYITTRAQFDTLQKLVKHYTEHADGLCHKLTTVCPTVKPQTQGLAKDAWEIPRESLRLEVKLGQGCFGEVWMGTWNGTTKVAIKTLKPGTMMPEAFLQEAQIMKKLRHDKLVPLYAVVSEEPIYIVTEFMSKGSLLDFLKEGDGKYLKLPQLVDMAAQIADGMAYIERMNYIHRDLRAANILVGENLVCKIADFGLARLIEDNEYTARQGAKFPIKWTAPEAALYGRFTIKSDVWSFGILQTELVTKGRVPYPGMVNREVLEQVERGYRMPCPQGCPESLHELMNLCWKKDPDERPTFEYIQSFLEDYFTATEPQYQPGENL", "from_the_text": "as §1"}, "[22]": {"molecular_target": "EGFR(E746-A750del) (Homo sapiens, UniProt P00533, DEL746-750)", "from_the_text": "as §1"}, "[23]": {"molecular_target": "BMPR2 (Homo sapiens, UniProt Q13873)", "from_the_text": "as §1"}, "[24]": {"molecular_target": "T10, IKK-beta (Homo sapiens, UniProt O14920)", "T10 construct": "gene IKBKB", "from_the_text": "as §1"}, "[25]": {"molecular_target": "FLT1 (Homo sapiens, UniProt P17948)", "from_the_text": "as §1"}},
  "data": [
    {"smiles": "Cn1c(=O)[nH]c2ccc(-c3cccc(C(=O)NC4CCn5ccnc5C4)c3)cc21", "note": "(stereo not shown) [Z36-MP5]", "values": [
      {"measurement": "remaining binding at 1 µM", "setting": "[1]", "value": 90, "unit": "%"},
      {"measurement": "remaining binding at 1 µM", "setting": "[2]", "value": 84, "unit": "%"},
      {"measurement": "remaining binding at 1 µM", "setting": "[3]", "value": 69, "unit": "%"},
      {"measurement": "remaining binding at 1 µM", "setting": "[4]", "value": 59, "unit": "%"},
      {"measurement": "remaining binding at 1 µM", "setting": "[5]", "value": 74, "unit": "%"},
      {"measurement": "remaining binding at 1 µM", "setting": "[6]", "value": 69, "unit": "%"},
      {"measurement": "remaining binding at 1 µM", "setting": "[7]", "value": 56, "unit": "%"},
      {"measurement": "remaining binding at 1 µM", "setting": "[8]", "value": 88, "unit": "%"},
      {"measurement": "remaining binding at 1 µM", "setting": "[9]", "value": 99, "unit": "%"},
      {"measurement": "remaining binding at 1 µM", "setting": "[10]", "value": 59, "unit": "%"},
      {"measurement": "remaining binding at 1 µM", "setting": "[11]", "value": 41, "unit": "%"},
      {"measurement": "remaining binding at 1 µM", "setting": "[12]", "value": 90, "unit": "%"},
      {"measurement": "remaining binding at 1 µM", "setting": "[13]", "value": 73, "unit": "%"},
      {"measurement": "remaining binding at 1 µM", "setting": "[14]", "value": 79, "unit": "%"},
      {"measurement": "remaining binding at 1 µM", "setting": "[15]", "value": 90, "unit": "%"},
      {"measurement": "remaining binding at 1 µM", "setting": "[16]", "value": 96, "unit": "%"},
      {"measurement": "remaining binding at 1 µM", "setting": "[17]", "value": 100, "unit": "%"},
      {"measurement": "remaining binding at 1 µM", "setting": "[18]", "value": 92, "unit": "%"},
      {"measurement": "remaining binding at 1 µM", "setting": "[19]", "value": 98, "unit": "%"},
      {"measurement": "remaining binding at 1 µM", "setting": "[20]", "value": 42, "unit": "%"},
      {"measurement": "remaining binding at 1 µM", "setting": "[21]", "value": 99, "unit": "%"},
      {"measurement": "remaining binding at 1 µM", "setting": "[22]", "value": 63, "unit": "%"},
      {"measurement": "remaining binding at 1 µM", "setting": "[23]", "value": 62, "unit": "%"},
      {"measurement": "remaining binding at 1 µM", "setting": "[24]", "value": 66, "unit": "%"},
      {"measurement": "remaining binding at 1 µM", "setting": "[25]", "value": 95, "unit": "%"}
    ]}
  ]
}
